# Measurements published in ChEMBL document CHEMBL4251604, “Design, synthesis and biological evaluation of 1, 4-dihydro indeno[1,2-c] pyrazole linked oxindole analogues as potential anticancer agents targeting tubulin and inducing p53 dependent apoptosis” (Eur J Med Chem, 2018).
# The source made the active and inactive calls. The rule behind the calls is not given here.
# What was measured:
# A549 = test: Antiproliferative activity against human A549 cells after 24 hrs by SRB assay; assay type: functional, cell-based; conditions: A549, 24 h
# HeLa [1] = test: Antiproliferative activity against human HeLa cells after 24 hrs by SRB assay; assay type: functional, cell-based
# MDA-MB-231 = test: Antiproliferative activity against human MDA-MB-231 cells after 24 hrs by SRB assay; assay type: functional, cell-based; conditions: MDA-MB-231, 24 h
# HEK293 = test: Antiproliferative activity against HEK293 cells after 24 hrs by SRB assay; assay type: cell-based; conditions: Homo sapiens, HEK293, 24 h
# HeLa [2] = test: Cell cycle arrest in human HeLa cells assessed as accumulation of cells at G2/M phase at 5 uM after 24 hrs by propidium iodide staining-based flow cytometric analysis (reference value: 16.4%); assay type: functional
# HeLa [3] = test: Inhibition of microtubules in human HeLa cells assessed as induction of disorganized spindle fibers formation at 5 uM after 24 hrs by DAPI staining-based confocal microscopic analysis; assay type: cell-based
# HeLa [4] = test: Inhibition of microtubules in human HeLa cells assessed as induction of cell cycle arrest in metaphase at 5 uM after 24 hrs by DAPI staining-based confocal microscopic analysis
# Tubulin (Homo sapiens) = Tubulin (Homo sapiens) (UniProt P68371+Q9H4B7+P0DPH7+P68366+Q13509+Q71U36+P04350+Q3ZCM7+P07437+P68363+Q9BQE3+Q6PEY2+Q13885+Q9BVA1+Q9BUF5); test: Inhibition of tubulin polymerization in human HeLa cells assessed as reduction in polymerized tubulin expression at 5 uM affter 24 hrs by Western blot analysis; assay type: cell-based
# HeLa [5] = test: Inhibition of microtubules in human HeLa cells assessed as increase in CDK1 protein level at 5 uM affter 24 hrs by Western blot analysis; assay type: cell-based
# HeLa [6] = test: Inhibition of microtubules in human HeLa cells assessed as increase in cyclin B1 protein level at 5 uM affter 24 hrs by Western blot analysis; assay type: cell-based
# HeLa [7] = test: Induction of apoptosis in human HeLa cells assessed as increase in caspase-3 activation at 5 uM after 24 hrs by fluorescence assay; assay type: functional, cell-based
# HeLa [8] = test: Induction of apoptosis in human HeLa cells assessed as increase in Bax expression at 5 uM after 24 hrs by DAPI staining-based immunocytochemistry; assay type: functional, cell-based
# HeLa [9] = test: Induction of apoptosis in human HeLa cells assessed as increase in p53 expression at 5 uM after 24 hrs by Western blot analysis; assay type: functional, cell-based
# HeLa [10] = test: Induction of apoptosis in human HeLa cells assessed as increase in p21 expression at 5 uM after 24 hrs by Western blot analysis; assay type: functional, cell-based
# HeLa [11] = test: Induction of apoptosis in human HeLa cells assessed as increase in p53 expression at 5 uM after 24 hrs by DAPI staining-based immunocytochemistry; assay type: functional, cell-based
# HeLa [12] = test: Induction of apoptosis in human HeLa cells assessed as increase in Bax expression at 5 uM after 24 hrs by Western blot analysis; assay type: functional, cell-based
SMILES,IC50 (A549) [µM],IC50 (HeLa [1]) [µM],IC50 (MDA-MB-231) [µM],IC50 (HEK293) [µM],also measured
COc1ccc2c(c1)-c1n[nH]c(/C=C3\C(=O)Nc4ccc([N+](=O)[O-])cc43)c1C2,26,22.1,29.2,30.8,
COc1ccc2c(c1)-c1n[nH]c(/C=C3\C(=O)Nc4ccccc43)c1C2,20.6,16,19.3,22.5,
O=C1Nc2ccc(Br)cc2/C1=C/c1[nH]nc2c1Cc1ccccc1-2,21.1,16.9,20.3,22.5,
O=C1Nc2cc(Br)ccc2/C1=C/c1[nH]nc2c1Cc1ccccc1-2,35.6,30.7,29.7,34.2,
COc1ccc(/C=C\c2cc(OC)c(OC)c(OC)c2)cc1O [COMBRETASTATIN A4],1.15,1.43,0.92,1.73,Activity (HeLa [2]): 55.8%; inhibition (HeLa [3]): Active; inhibition (HeLa [4]): Active
O=C1Nc2ccc(Cl)cc2/C1=C/c1[nH]nc2c1Cc1ccccc1-2,20.5,15.2,16.8,24.3,
COc1ccc2c(c1)-c1n[nH]c(/C=C3\C(=O)Nc4ccc(Br)cc43)c1C2,29.8,30.9,34.1,35.8,
O=C1Nc2cc(Cl)ccc2/C1=C/c1[nH]nc2c1Cc1ccccc1-2,20.5,14.6,24.3,19.4,
COc1ccc2c(c1)/C(=C/c1[nH]nc3c1Cc1ccccc1-3)C(=O)N2,29.6,30.1,26.7,33.9,
COc1ccc2c(c1)-c1n[nH]c(/C=C3\C(=O)Nc4cc(Cl)ccc43)c1C2,20.9,17,19,21.9,
COc1cc2c(cc1OC)-c1n[nH]c(/C=C3\C(=O)Nc4cc([N+](=O)[O-])ccc43)c1C2,34.4,30.7,29.9,36.7,
COc1cc2c(cc1OC)-c1n[nH]c(/C=C3\C(=O)Nc4cc(Br)ccc43)c1C2,22.5,20.5,20.4,24.6,
COc1ccc2c(c1)-c1n[nH]c(/C=C3\C(=O)Nc4cc(Br)ccc43)c1C2,26.1,25.4,23.4,28.6,

# Further compounds by falling IC50 (A549), results first:
IC50 (A549) [µM],IC50 (HeLa [1]) [µM],IC50 (MDA-MB-231) [µM],SMILES,IC50 (HEK293) [µM],also measured
17.6,17.5,20.8,COc1ccc2c(c1)-c1n[nH]c(/C=C3\C(=O)Nc4ccc(Cl)cc43)c1C2,27.4,
17.1,11.5,18.7,COc1cc2c(cc1OC)-c1n[nH]c(/C=C3\C(=O)Nc4ccc(Br)cc43)c1C2,19.6,
16.6,11.7,19,O=C1Nc2ccccc2/C1=C/c1[nH]nc2c1Cc1ccccc1-2,24.3,
13.5,8.96,12.3,COc1cc2c(cc1OC)-c1n[nH]c(/C=C3\C(=O)Nc4ccc(Cl)cc43)c1C2,9.21,
3.43,2.58,4.14,COc1ccc2c(c1)/C(=C/c1[nH]nc3c1Cc1cc(OC)c(OC)cc1-3)C(=O)N2,5.1,Activity (HeLa [2]): 31.3%; inhibition (HeLa [3]): Active; inhibition (Tubulin (Homo sapiens)): Active; inhibition (HeLa [4]): Active; inhibition (HeLa [5]): Active; inhibition (HeLa [6]): Active
2.92,2.16,3.45,COc1cc2c(cc1OC)-c1n[nH]c(/C=C3\C(=O)Nc4ccccc43)c1C2,4.36,Activity (HeLa [2]): 23.6%; inhibition (HeLa [3]): Active; inhibition (Tubulin (Homo sapiens)): Active; inhibition (HeLa [4]): Active; inhibition (HeLa [5]): Active; inhibition (HeLa [6]): Active; Activity (HeLa [7]): Active
2.44,1.33,2.08,COc1cc2c(cc1OC)-c1n[nH]c(/C=C3\C(=O)Nc4cc(Cl)ccc43)c1C2,2.97,Activity (HeLa [8]): Active; Activity (HeLa [2]): 30.3%; inhibition (HeLa [3]): Active; Activity (HeLa [9]): Active; inhibition (Tubulin (Homo sapiens)): Active; inhibition (HeLa [4]): Active; Activity (HeLa [10]): Active; Activity (HeLa [11]): Active; inhibition (HeLa [5]): Active; inhibition (HeLa [6]): Active; Activity (HeLa [12]): Active; Activity (HeLa [7]): Active
